Experimental findings from US20250009743A1, “METHODS OF TREATING CANCERS USING STING AGONISTS” (Dana-Farber Cancer Institute, Inc., priority 2021, published 2025) are described below.

For assay [1], the system named is PBM tumors. As to the kind of experiment: PBM ovarian tumor burden in syngeneic FVB/NJ mice. Format: in vivo, mouse. The note with it: olaparib 50 mg/kg i.p. 6 days a week; most tumors eventually progressed; FIG. 15B. As to the method: Tumor burden of PBM tumor-bearing mice treated with indicated agents was measured by bioluminescence (ROI, […]) after 2 weeks of treatment (control, n=6; olaparib, n=7, olaparib+MSA-2, n=4). Ordinary one-way ANOVA analysis. **, P<0.01; ***, P<0.001. The murine ovarian tumor model PBM used for this experiment was previously generated (Ding L, Kim H J, Wang Q, Kearns M, Jiang T, Ohlson C E, Li B B, Xie S, Liu J F, Stover E H, Howitt B E, Bronson R T, Lazo S, Roberts T M, Freeman G J, Konstantinopoulos P A, Matulonis U A, Zhao J J. PARP Inhibition Elicits STING-Dependent Antitumor Immunity in Brca1-Deficient Ovarian Cancer. Cell Rep. 2018 Dec. 11;25 (11): 2972-2980.e5. doi: 10.1016/j.celrep.2018.11.054. PMID: 30540933; PMCID: PMC6366450). About 2×10^5 PBM tumor cells were orthotopically transplanted into syngeneic FVB/NJ mice. Ten days after transplantation, Tumor-bearing mice were equivalently divided into control and treatment groups according to the luminescent intensity. Tumor burden of PBM tumor-bearing mice was measured by bioluminescence (ROI, […]). Olaparib (AZD2281) was administered daily by i.p. (intraperitoneal) injection at dose of 50 mg/kg body weight. […]
The PBM and PBM-R tumor cells were transplanted orthotopically into syngeneic FVB/NJ mice to generated tumors for drug evaluation. […] The endpoints were determined by tumor burden and ascites.

Assay [2] relates to myeloid cells (CD45^+CD11b^+) in ascites of PBM-R tumor-bearing mice. As to the kind of experiment: Myeloid cells in ascites of PBM-R tumor-bearing mice (transcriptome, flow cytometry). The class given is in vivo, mouse. The note with it: 24 hours treatment. The procedure: Tumors were chopped and digested in collagenase buffer as described previously (Ding et al., 2018 Cell Rep 25, 2972-2980.e2975). Single cell suspensions of tumor and ascites were obtained by filtering through 70 um strainers and treated with 1× eBioscience RBC lysis buffer (Thermo Fisher) before staining. Single cells suspensions were incubated with LIVE/DEAD Fixable Aqua Dead Cell Stain (Life Technologies, Cat #L34965) for 30 min and then blocked with anti-CD16/32 (Biolegend, clone 93) for 20 min on ice. Samples were then incubated with appropriate antibodies for 30 min on ice. Foxp3 staining buffer set (eBioscience, Cat #00-5523-00) was applied for intracellular markers staining. For the intracellular cytokine analysis, cells were stimulated with Leukocyte Activation Cocktail (BD Biosciences, Cat #550583) at 37° C. for 4-6 hours prior to FACS staining. The following antibodies were used in this study: antibodies were purchased from BioLegend unless otherwise indicated: CD45 (clone 30-F11), CD3ε (clone 145-2C11), CD4 (clone RM4-5), CD8 (clone 53-6.7), CD44 (clone IM7), CD62L (MEL-14), CD25 (PC61), IFNγ (clone XMG1.2), TNFα (clone MP6-XT22), CD11b (clone M1/70), CD11c […], F4/80 (clone BM8), Ly-6C (clone HK1.4), Ly-6G (clone 1A8), MHC-II (clone M5/114.15.2), CD80 (clone 16-10A1), CD86 (clone GL-1), MHC-I (clone KH114), FoxP3 (clone FJK-16 s; eBioscience), Phospho-IRF-3 (Ser396) (clone D601M, Cell signaling technology) and Phospho-TBK1/NAK (Ser172) (clone D52C2, Cell signaling technology). The following human antibodies were used in this study: cell surface markers includes CD45 (clone H130), CD11b (clone M1/70), CD11c (clone Bu15), CD80 (clone 2D10), CD86 (clone IT2.2), CD14 (clone 63D3), CD15 […], HLA-DR (clone L243) and HLA-A,B,C (clone W6/32); intracellular markers include CD163 (clone GHI/61), CD68 (clone Y1/82A) and CD206 (clone 15-2). Flow cytometry was performed on an LSRII (BD Biosciences) or Fortessa HTS (BD Biosciences) at DFCI Flow Cytometry Core, and all the data were analyzed using FlowJo software.
Transcriptome analysis of myeloid cells: about 1 x10^6 PBM-R tumor cells were intraperitoneally injected to FVB/NJ mice. About 2-3 weeks after injection, mice were grouped and treated with control, olaparib, MSA-2 and […] for 24 hrs. After treatment, myeloid cells (CD45^+CD11b^+) were isolated from the ascites of each mouse (n=3 per group). Total RNAs was isolated and sequenced on the Ion Torrent platform (Thermo Fisher) that described above using the Ion AmpliSeq Transcriptome Mouse Gene Expression Panel. Gene ontology (GO) analysis of DEGs was performed using topGO package in R. GSEA analysis was performed as described above. Heat maps illustrating changes in gene expression were generated using the heatmap.3 package in R.

As for `O=C(c1cc(Cc2n[nH]c(=O)c3ccccc23)ccc1F)N1CCN(C(=O)C2CC2)CC1` [olaparib], the PBM tumor response result in assay [1] is “initial robust response”.
Regarding `COc1cc2cc(C(=O)CCC(=O)O)sc2cc1OC` [MSA-2], the “cGAS-STING pathway gene signature in myeloid cells” value in assay [2] (vs control mice) is “significantly higher enrichment scores”. Also, in assay [2] (FIG. 21D), the “expression of M1-like/anti-tumorigenic genes” value was “strongly up-regulated”; the “expression of genes associated with antigen processing and presentation” value was “strongly stimulated”; the “expression of genes associated with pro-tumorigenic M2 polarization” value is “inhibited”. Moreover, the “population of TAMs in ascites” value in assay [2] (FIG. 21F) is given as “decreased”. In addition, the “population of CD11b^+CD11c^+ myeloid DCs in ascites” value in assay [2] (FIG. 21G) is on record as “increased”.
